Test system: Patienten
Assay: Double-blind crossover clinical study, impedance cardiography (I.C.) in six patients
Assay type: in vivo, Menschen
From the text: Im folgenden werden klinische Versuche am Menschen beschrieben, die die Wirkungen der erfindungsgemäßen pharmazeutischen Zubereitung zeigen: • Tabelle 1 zeigt in schematischer Darstellung eine Doppel-Blind-Studie mit der erfindungsgemäßen pharmazeutischen Zubereitung.
Dabei bedeutet "I.C."Impedanz Cardiographie.
Zur Durchführung der Impedanz Cardiographie wird insbesondere verwiesen auf "Biomedical and clinical aspects for coenzyme Q, Volume 1 (1977) Volume 2 (1980), Volume 3 (1981), Volume 4 (1984), Elsevier/North-Holland Biomedical Press, Amsterdam-New York-Oxford" und auf Lee E. Baker (ebenda, Vol. 2,.Seite 289) und schließlich W.G. Kubicek, Aerospace Med. 37 (12), 1208, 1966.
Die Wirkungen der erfindungsgemäßen pharmazeutischen Zubereitung auf das Herz-Schlag-Volumen (SV), das Herz-Zeit-Volumen (CO) und den Heather Index (HI) von sechs Patienten wurden ermittelt und in der folgenden Tabelle 2 zusammengestellt.
Den sechs Patienten wurden gemäß Tabelle II gegeben: • CoQ10 : 3 x 33 mg = 99 mg täglich • Placebo : Oleum arachidis Vol.(eine Kapsel 0,5 ml) • CoQ10 + Vitamin E : (3 x 33 mg) + (3 x 100 mg) zusammen in 3 Kapseln täglich gelöst in Oleum arachidis • Vitamin E : 3 x 100 mg täglich (= 3 Kapseln . täglich). [formula]

[1] = oral capsules daily, impedance cardiography, result in words

COC1=C(OC)C(=O)C(C/C=C(\C)CC/C=C(\C)CC/C=C(\C)CC/C=C(\C)CC/C=C(\C)CC/C=C(\C)CC/C=C(\C)CC/C=C(\C)CC/C=C(\C)CCC=C(C)C)=C(C)C1=O [CoQ10, 2.3-Dimethoxy-5-methyl-1.4-benzochinon mit einer isoprenoiden Seitenkette, mit 10 Dihydroisopren-Einheiten]
Steigerung des Herzminutenvolumens (CO) (oral capsules daily (CoQ10 3 x 33 mg; combination 3 x 33 mg + 3 x 100 mg Vitamin E), versus controls, placebo and Vitamin E alone): ~20%
Heather Index (HI) [1]: Ähnliches gilt
Schlagvolumen (SV) [1]: Ähnliches gilt

— patent EP0198172A1, “Pharmaceutical preparation” (HERMES Fabrik pharmazeutischer Präparate Franz Gradinger …, priority 1985, dated 1986)
